Test results published in ChEMBL document CHEMBL1201862, “PubChem BioAssay data set” (2004).
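1) Cells in 96-well plates. 2) Compound, 48 h, 5 concentrations. 3) Linear interpolation between surrounding doses. 4) Unreached endpoint = highest concentration. GI50 = concentration required for 50% inhibition of growth.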 The source made the active and inactive calls. Rule as the data show it: active = GI50 up to about 1.1 µM and inactive = higher.

Legend:
Assay in all cases: inhibition of tumour cell growth, NCI panel, 48 h
786-0 = system: 786-0
A498 = system: A498
A549 = system: A549
ACHN = system: ACHN
BT-549 = system: BT-549
CAKI-1 = system: CAKI-1
CCRF-CEM = system: CCRF-CEM
COLO 205 = system: COLO 205
DU-145 = system: DU-145
EKVX = system: EKVX
HCC 2998 = system: HCC 2998
HCT-116 = system: HCT-116
HCT-15 = system: HCT-15
HL-60 = system: HL-60
HOP-62 = system: HOP-62
HOP-92 = system: HOP-92
HT-29 = system: HT-29
Hs-578T = system: Hs-578T
IGROV-1 = system: IGROV-1
K562 = system: K562
KM12 = system: KM12
LOX IMVI = system: LOX IMVI
M14 = system: M14
MCF7 = system: MCF7
MDA-MB-231 = system: MDA-MB-231
MDA-MB-435 = system: MDA-MB-435
MOLT-4 = system: MOLT-4
Malme-3M = system: Malme-3M
NCI-H226 = system: NCI-H226
NCI-H23 = system: NCI-H23
NCI-H460 = system: NCI-H460
NCI/ADR-RES = system: NCI/ADR-RES
OVCAR-3 = system: OVCAR-3
OVCAR-4 = system: OVCAR-4
OVCAR-5 = system: OVCAR-5
OVCAR-8 = system: OVCAR-8
PC-3 = system: PC-3
RPMI-8226 = system: RPMI-8226
RXF 393 = system: RXF 393
SF-268 = system: SF-268
SF-295 = system: SF-295
SF-539 = system: SF-539
SK-MEL-28 = system: SK-MEL-28
SK-MEL-2 = system: SK-MEL-2
SK-MEL-5 = system: SK-MEL-5
SK-OV-3 = system: SK-OV-3
SNB-19 = system: SNB-19
SNB-75 = system: SNB-75
SR = system: SR
SW-620 = system: SW-620
T47D = system: T47D
TK-10 = system: TK-10
U-251 = system: U-251
UACC-257 = system: UACC-257
UACC-62 = system: UACC-62
UO-31 = system: UO-31

Structure (SMILES): Cn1c(-c2cccc([N+](=O)[O-])c2)[n+](C)c2ccccc21
- GI50 (786-0): > 100 µM (inactive)
- GI50 (A498): > 100 µM (inactive)
- GI50 (A549): 46.9 µM (inactive)
- GI50 (ACHN): 41.6 µM (inactive)
- GI50 (BT-549): > 100 µM (inactive)
- GI50 (CAKI-1): > 100 µM (inactive)
- GI50 (CCRF-CEM): > 100 µM (inactive)
- GI50 (COLO 205): 17.7 µM (inactive)
- GI50 (DU-145): > 100 µM (inactive)
- GI50 (EKVX): > 100 µM (inactive)
- GI50 (HCC 2998): > 100 µM (inactive)
- GI50 (HCT-116): > 100 µM (inactive)
- GI50 (HCT-15): > 100 µM
- GI50 (HL-60): 29.2 µM (inactive)
- GI50 (HOP-62): > 100 µM (inactive)
- GI50 (HOP-92): > 100 µM (inactive)
- GI50 (HT-29): 40.9 µM (inactive)
- GI50 (Hs-578T): > 100 µM (inactive)
- GI50 (IGROV-1): 44.4 µM (inactive)
- GI50 (K562): > 100 µM (inactive)
- GI50 (KM12): > 100 µM (inactive)
- GI50 (LOX IMVI): > 100 µM (inactive)
- GI50 (M14): > 100 µM (inactive)
- GI50 (MCF7): > 100 µM (inactive)
- GI50 (MDA-MB-231): > 100 µM (inactive)
- GI50 (MDA-MB-435): > 100 µM (inactive)
- GI50 (MOLT-4): > 100 µM (inactive)
- GI50 (Malme-3M): 89.3 µM (inactive)
- GI50 (NCI-H226): > 100 µM (inactive)
- GI50 (NCI-H23): 25.7 µM (inactive)
- GI50 (NCI-H460): > 100 µM (inactive)
- GI50 (NCI/ADR-RES): > 100 µM (inactive)
- GI50 (OVCAR-3): 30.8 µM (inactive)
- GI50 (OVCAR-4): > 100 µM (inactive)
- GI50 (OVCAR-5): > 100 µM (inactive)
- GI50 (OVCAR-8): 49 µM (inactive)
- GI50 (PC-3): 46.8 µM (inactive)
- GI50 (RPMI-8226): > 100 µM (inactive)
- GI50 (RXF 393): > 100 µM (inactive)
- GI50 (SF-268): 87.7 µM (inactive)
- GI50 (SF-295): > 100 µM (inactive)
- GI50 (SF-539): > 100 µM (inactive)
- GI50 (SK-MEL-28): > 100 µM (inactive)
- GI50 (SK-MEL-2): > 100 µM (inactive)
- GI50 (SK-MEL-5): 76.7 µM (inactive)
- GI50 (SK-OV-3): > 100 µM (inactive)
- GI50 (SNB-19): > 100 µM (inactive)
- GI50 (SNB-75): > 100 µM (inactive)
- GI50 (SR): > 100 µM (inactive)
- GI50 (SW-620): > 100 µM (inactive)
- GI50 (T47D): > 100 µM (inactive)
- GI50 (TK-10): > 100 µM (inactive)
- GI50 (U-251): > 100 µM (inactive)
- GI50 (UACC-257): > 100 µM (inactive)
- GI50 (UACC-62): > 100 µM (inactive)
- GI50 (UO-31): > 100 µM (inactive)

Structure (SMILES): CC12CCC(C(Nc3cc(C(F)(F)F)cc(C(F)(F)F)c3)C1=O)C2(C)C (stereo unspecified)
- GI50 (786-0): > 100 µM (inactive)
- GI50 (A498): > 100 µM (inactive)
- GI50 (A549): > 100 µM (inactive)
- GI50 (ACHN): > 100 µM (inactive)
- GI50 (BT-549): > 100 µM (inactive)
- GI50 (CAKI-1): > 100 µM (inactive)
- GI50 (COLO 205): > 100 µM (inactive)
- GI50 (DU-145): > 100 µM (inactive)
- GI50 (EKVX): > 100 µM (inactive)
- GI50 (HCC 2998): > 100 µM (inactive)
- GI50 (HCT-116): > 100 µM (inactive)
- GI50 (HCT-15): > 100 µM
- GI50 (HOP-62): > 100 µM (inactive)
- GI50 (HT-29): > 100 µM (inactive)
- GI50 (IGROV-1): > 100 µM (inactive)
- GI50 (K562): > 100 µM (inactive)
- GI50 (KM12): > 100 µM (inactive)
- GI50 (LOX IMVI): > 100 µM (inactive)
- GI50 (M14): > 100 µM (inactive)
- GI50 (MCF7): > 100 µM (inactive)
- GI50 (MDA-MB-231): > 100 µM (inactive)
- GI50 (MDA-MB-435): > 100 µM (inactive)
- GI50 (MOLT-4): > 100 µM (inactive)
- GI50 (Malme-3M): > 100 µM (inactive)
- GI50 (NCI-H226): > 100 µM (inactive)
- GI50 (NCI-H23): > 100 µM (inactive)
- GI50 (NCI-H460): > 100 µM (inactive)
- GI50 (NCI/ADR-RES): > 100 µM (inactive)
- GI50 (OVCAR-3): > 100 µM (inactive)
- GI50 (OVCAR-4): > 100 µM (inactive)
- GI50 (OVCAR-5): > 100 µM (inactive)
- GI50 (OVCAR-8): > 100 µM (inactive)
- GI50 (PC-3): > 100 µM (inactive)
- GI50 (RPMI-8226): > 100 µM (inactive)
- GI50 (SF-268): > 100 µM (inactive)
- GI50 (SF-295): > 100 µM (inactive)
- GI50 (SF-539): > 100 µM (inactive)
- GI50 (SK-MEL-28): > 100 µM (inactive)
- GI50 (SK-MEL-2): > 100 µM (inactive)
- GI50 (SK-MEL-5): > 100 µM (inactive)
- GI50 (SK-OV-3): > 100 µM (inactive)
- GI50 (SNB-19): > 100 µM (inactive)
- GI50 (SR): > 100 µM (inactive)
- GI50 (SW-620): > 100 µM (inactive)
- GI50 (T47D): > 100 µM (inactive)
- GI50 (TK-10): > 100 µM (inactive)
- GI50 (U-251): > 100 µM (inactive)
- GI50 (UACC-257): > 100 µM (inactive)
- GI50 (UACC-62): > 100 µM (inactive)
- GI50 (UO-31): > 100 µM (inactive)
